This is an account of results in patent publication US10238633B2, “Methods for treating pulmonary emphysema using substituted 2-Aza-bicyclo[2.2.1]heptane-3-carboxylic acid (benzyl-cyano-methyl)-amides inhibitors of Cathepsin C” (Boehringer Ingelheim International GmbH, priority 2013, dated 2019).

SMILES strings stand for the structures. pIC50: −log10 of the molar value. Where two headings read alike, the source gives them in different places.

Data set [1] can be described thus: Determination of metabolic stability with human liver microsomes. The conditions noted are these: pooled human liver microsomes, 37° C., test compound 1 μM, NADPH. In general terms: Microsomes from liver hold many membrane-bound enzymes, among them those of drug oxidation.
Protocol: (§1) Determination of Metabolic Stability with Human Liver Microsomes
(§2) The metabolic degradation of the test compound is assayed at 37° C. with pooled human liver microsomes. The final incubation volume of 100 μl per time point contains TRIS buffer pH 7.6 (0.1 M), magnesium chloride (5 mM), microsomal protein (1 mg/ml) and the test compound at a final concentration of 1 μM. Following a short preincubation period at 37° C., the reactions are initiated by addition of beta-nicotinamide adenine dinucleotide phosphate, reduced form (NADPH, 1 mM) and terminated by transferring an aliquot into acetonitrile after different time points. Additionally, the NADPH-independent degradation is monitored in incubations without NADPH, terminated at the last time point. The [%] remaining test compound after NADPH independent incubation is reflected by the parameter c(control) (metabolic stability). The quenched incubations are pelleted by centrifugation (10,000 g, 5 min). An aliquot of the supernatant is assayed by LC-MS/MS for the amount of parent compound.
(§3) The half-life (t1/2 INVITRO) is determined by the slope of the semilogarithmic plot of the concentration-time profile. The intrinsic clearance (CL_[sequence]) is calculated by considering the amount of protein in the incubation: CL_[sequence] [μl/min/mg protein]=(In 2/(half-life [min]*protein content [mg/ml]))*1,000.
The conditions of data set [2]: microsomes.
Protocol: as §1, §2, §3
Data set [3] deals with Neutrophil elastase activity in U937 cells. Description: Determination of neutrophil elastase activity in U937 cytosolic lysate preparation after incubation with test compound. Format: cell-based. The conditions noted are these: Homo sapiens, U-937, read-out: Reduction of NE-activity in U937 cells IC50. On the procedure:
Determination of Neutrophil Elastase Activity in U937 Cytosolic Lysate Preparation after Incubation with Test Compound
Optiplate 384F were purchased from PerkinElmer (Prod. No. #6007270). 24 well Nunclon cell culture plates (No. 142475) and 96 well plates (No. 267245) were from Nunc. Dimethylsulfoxid (DMSO) was from Sigma (Prod. No. D8418). Nonidet-P40 (NP40) was from USBiological (Prod. No. N3500)
Substrate, specific for Neutrophil elastase, was from Bachem (MeOSuc-Ala-Ala-Pro-Val-AMC; Prod. No. 1-1270).
Human neutrophil elastase was from Calbiochem (Prod. No. 324681)
Tris-buffer (100 mM Tris; 1M NaCL; pH 7.5)
Tris-buffer+HSA 0.1%; Human Serum Albumin from Calbiochem (Cat#. 126658)
Serine-protease buffer (20 mM Tris; 100 mM NaCL; pH 7.5)+0.1% HSA
Serine protease lysis buffer: 20 mM Tris-HCL; 100 mM NaCl pH 7.5; +0.2% Nonidet-P40;
PBS: phosphate buffered saline, without Ca and Mg, from Gibco
U937 from ECACC (Cat. No. 85011440) cultured in suspension at 37° C. and 5% CO2.
Cell density: 0.2-1 Mio. Cells/ml.
Medium: RPMI1640 GlutaMAX (No. 61870) with 10% FCS from Gibco
Cell Seeding and Treatment:
Compounds in 100% DMSO were diluted in Medium (—FCS) with 10% DMSO and further diluted according to the experiment planned.
20 μl of the compound solution was transferred in the respective wells of the 24 well plate and diluted with 2 ml cell suspension/well containing […] (final concentration of DMSO=0.1%). Compound dilution factor=100
Compounds (up to 7 concentrations) were tested in triplicates with 3 wells for the DMSO 0.1% control, incubated for 48 hours without medium change at 37° C., 5% CO2 and 95% relative humidity.
Cell Harvesting and Cell Lysate:
Transfer the cell suspension in 2.2 ml Eppendorf cups. Separate cells from medium by centrifugation (400×g; 5 min; RT); discard the supernatant. Resuspend in 1 ml PBS; centrifugation (400×g; 5 min; RT); wash cells twice with PBS. Add 100 μl Serin lysis buffer (ice cold) to the cell pellet; resuspend the pellet and store on ice for 15 minutes. Remove debris by centrifugation at 15000×g for 10 min at 4° C. Transfer 80-100 μl lysate supernatant in 96 well plate and store immediately at −80° C.
Neutrophil Elastase Activity Assay:
Frozen lysates were thawn at 37° C. for 10 minutes and stored on ice. Protein content was determined with Bradford protein assay. Lysates were diluted to 0.2-0.5 mg/ml protein in serine protease buffer+HSA.
Standard: NE (100 μg/ml stock solution in Tris-buffer; stored at −80° C.) was diluted in Tris-buffer+HSA to 750 ng/ml, and further serially diluted 1:2 for the standard curve.
Buffer, blank, standard and lysate samples were transferred into 384 well plate
Blank: 5 μl Tris-buffer+10 μl Tris-buffer+HSA+5 μl Substrate
Standard: 5 μl Tris-buffer+10 μl NE (diff. conc.)+5 μl Substrate
Lysate: 5 μl Tris-buffer+10 μl Lysat+[…] Substrate
The increase in fluorescence (Ex360 nm/Em 460 nm) is determined over 30 minutes with a Molecular Device Spectramax M5 Fluorescence Reader. Kinetic Reduction (Vmax units/sec); 4 vmax points. The amount of neutrophil elastase (ng/ml) is calculated using the standard curve and the Spectramax software. The result is interpolated to ng/mg lysate protein using excel formula functions. […] IC50 is calculated using Graphpad Prism; nonlinear fitting (log(inhibitor) vs. response—Variable slope).

Consider `CN1C(=O)Cc2ccc(-c3ccc(CC(C#N)NC(=O)[C@H]4N[C@@H]5CC[C@H]4C5)c(F)c3)cc21` (stereo partly shown) [Example 15], for which, in data set [1], the “In vitro stability in human liver microsome incubations t½” value (shortened to “In vitro stability”) worked out at 2.17 h. As for `N#Cc1ccc(-c2ccc(C[C@@H](C#N)NC(=O)[C@H]3N[C@H]4C[C@@H]3[C@@H]3C[C@@H]34)c(F)c2)s1` [Example 40], the “In vitro stability” value in data set [2] was greater than 2.17 h. With `N#CC(Cc1ccc(-c2cnn(-c3ccccc3)c2)cc1F)NC(=O)[C@H]1N[C@@H]2CC[C@H]1C2` (stereo partly shown) [Example 78], the “In vitro stability” value in data set [1] is 2.17 h. As to `N#C[C@H](Cc1ccc(-c2cc(C(=O)N3CCn4nccc4C3)co2)cc1F)NC(=O)[C@H]1N[C@@H]2CC[C@H]1C2` [Example 240], the “In vitro stability” value in data set [2] came out at 1.83 h. Turning to `CS(=O)(=O)c1ccc(-c2ccc(C[C@@H](C#N)NC(=O)[C@H]3N[C@@H]4CC[C@H]3C4)c(F)c2)cc1OCC(F)F` [Example 252], the “In vitro stability” value in data set [1] stood at 2.17 h. Turning to `N#C[C@H](Cc1ccc(N2CCCN3CCCC3C2)cc1F)NC(=O)[C@H]1N[C@@H]2CC[C@H]1C2` (stereo partly shown) [Example 271], the pIC50 (commonly −log10 of the IC50, conventionally taken in molar units) in data set [3] is 8.77. Besides, the “In vitro stability” value in data set [1] worked out at 2.17 h.

As to `CS(=O)(=O)c1cc(OCC(F)(F)F)cc(-c2ccc(C[C@@H](C#N)NC(=O)[C@H]3N[C@@H]4CC[C@H]3C4)c(F)c2)c1` [Example 276], the “In vitro stability” value in data set [1] was 2.17 h.

Regarding `N#C[C@H](Cc1ccc(N2CC3CCN(C4CCOC4)C3C2)cc1F)NC(=O)[C@H]1N[C@@H]2CC[C@H]1C2` (stereo partly shown) [Example 348], in data set [3], the pIC50 was 8.70. Besides, the “In vitro stability” value in data set [1] turned out to be 2.17 h. Consider `CN1CCC2CN(c3ccc(C[C@@H](C#N)NC(=O)[C@H]4N[C@@H]5CC[C@H]4C5)c(F)c3)CC21` (stereo partly shown) [Example 349], for which the pIC50 in data set [3] is 8.55. Same read-out and setting: to `CN1CCC2(CC1)CC(c1ccc(C[C@@H](C#N)NC(=O)[C@H]3N[C@@H]4CC[C@H]3C4)c(F)c1)C2` [Example 358] belongs 8.43. Regarding `CN1CCC2(C=C(c3ccc(C[C@@H](C#N)NC(=O)[C@H]4N[C@@H]5CC[C@H]4C5)c(F)c3)C2)CC1` [Example 359], in data set [3], the pIC50 was 8.54.
